For experiment [1], the system named is climbing behavior induced by apomorphine in mice. Description: Anti-climbing activity (climbing behavior induced by apomorphine in mice). The format is in vivo, mice (dd strain male). Conditions: Mus musculus, po. The source says:
This activity was examined through the anticlimbing behavior test, i.e. the test for suppressing the climbing behavior induced by apomorphine in mice. A designed amount of the test compound was orally administered to several groups of dd strain male mice (bodyweight, 20 to 25 g; one group, 5 mice), and each of the animals was charged in an individual column cage of 12 cm in diameter and 14 cm in height having metal poles (each pole, 2 mm in diameter) vertically installed and arranged along the periphery with intervals of 1 cm. […]
0 All the paws were on the floor
1 Only forepaws seized the pole of the cage
2 All the paws seized the pole of the cage;
climbing behavior observed discontinu-
3 Continuous climbing behavior observed

Another experiment concerns 5-HT2 receptors. Description: Anti-head twitching activity (anti-5-HT2 activity; 5-methoxytryptamine-induced head twitches in mice). The format is in vivo, mice (dd strain male). Conditions: Mus musculus, po, nialamide 30 mg/kg i.p., 5-MT 2.5 mg/kg i.v., head twitches for 3 minutes. How it is done: It is known that the efficacy on the negative symptom can be evaluated through anti-5-hydroxytryptamine 2 (5-HT2) activity. […] Based on the above knowledges, test for measurement of head twitches in mice was carried out for evaluation of the anti-5-HT2 activity.

The next experiment has as its target T1, dopamine D2 receptor (Bos taurus, UniProt P20288).
T1 construct: from tissue; host or cells: bovine corpus striatum, washed membrane fractions
Description: Dopamine D2 receptor binding assay (displacement of [3H] spiperone, membrane fractions of corpus striatum). Also noted: species or system bovine. As for the experimental part:
Fresh corpus striatum taken out from bovine brain was homogenized in a 20-fold dilution of Tris-HCl buffer solution (pH, 7.4; 0.05 M) and centrifuged (50,000×g) for 10 minutes to give the membrane fractions, which were washed with the same volume of the buffer solution twice to give the membrane fractions for assay.
Number of bindings specific to the D2 receptor in [^3 H] spiperone in a designed concentration of the test compound was measured according to the following equation and the IC50 and Ki was determined thereon on the basis of a hill plot: [formula] l: concentration of [^3 H] spiperone on assay KD : dissociation constant of [^3 H] spiperone

Setting [2] is: 1 hr, apomorphine 1.0 mg/kg s.c., mice, read-out: ED50 (p.o.) 1 hr.

Like-named read-outs stand apart in the source and are kept apart here.

T1 sequence (P20288 whole entry): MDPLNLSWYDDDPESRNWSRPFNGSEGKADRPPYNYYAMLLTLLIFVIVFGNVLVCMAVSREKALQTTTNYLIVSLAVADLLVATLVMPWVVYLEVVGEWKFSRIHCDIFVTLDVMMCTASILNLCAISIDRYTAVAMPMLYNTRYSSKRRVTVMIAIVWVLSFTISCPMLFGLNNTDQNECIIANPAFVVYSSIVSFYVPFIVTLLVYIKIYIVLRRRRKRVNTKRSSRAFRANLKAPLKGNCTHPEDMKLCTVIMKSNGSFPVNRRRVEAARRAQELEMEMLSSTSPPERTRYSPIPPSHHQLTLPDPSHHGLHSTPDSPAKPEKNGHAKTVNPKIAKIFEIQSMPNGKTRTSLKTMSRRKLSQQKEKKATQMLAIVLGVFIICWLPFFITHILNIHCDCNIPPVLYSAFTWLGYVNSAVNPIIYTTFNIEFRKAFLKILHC

With `O=C1C2CCCCC2C(=O)N1CCCCN1CCC(c2noc3cc(F)ccc23)CC1` (stereo not drawn) [Example 1, N-[4-{4-(6-Fluoro-1,2-benzisoxazol-3-yl)piperidinyl}butyl]cyclohexane-1,2-dicarboximide], the ED50 (as a rule, the midpoint of the dose-response relation) in experiment [1] (setting [2]) is 0.92 mg/kg; in experiment [1] (4 hrs, apomorphine 1.0 mg/kg s.c., mice, read-out: ED50 (p.o.) 4 hrs), 2.3 mg/kg; in the experiment on 5-HT2 receptors, 0.3 to 1 mg/kg. Also, at dopamine D2 receptor ([3H] spiperone 1 nM, 37° C., 30 minutes, bovine corpus striatum membranes, read-out: Ki), the Ki (in general, the equilibrium dissociation constant of an inhibitor or competing ligand from its target) is 0.37 nM.

As for `O=C1CC2(CCCC2)CC(=O)N1CCCCN1CCN(c2nsc3ccccc23)CC1` [Tiaspirone, 8-[4-(3-benzisothiazolyl)-1-piperazinylbutyl]-8-azaspiro[4,5]decane-7,9-dione], the figures for the ED50 (in experiment [1] (setting [2]); with 5-HT2 receptors) were 9.4 mg/kg and 4 mg/kg, respectively. The compound also showed an inhibition constant Ki at dopamine D2 receptor of 0.5 nM.

Consider `CN(C)CCCN1c2ccccc2Sc2ccc(Cl)cc21` [Chlorpromazine, 2-chloro-10-(3-dimethylaminopropyl)-phenothiazine], for which the ED50 in experiment [1] (1 h, read-out: ED50 (p.o.) 1 hr) was 1.8 mg/kg; in experiment [1] (4 h, read-out: ED50 (p.o.) 4 hrs) it was 8.8 mg/kg.
